Activity calls are given as the source filed them.
Assays:
[1] = biological target: Intestinal-type alkaline phosphatase (Homo sapiens, UniProt P09923); experiment: inhibition of human intestinal alkaline phosphatase – biochemical, dose response (AID 488876); type: functional
[2] = biological target: T1, Alkaline phosphatase, tissue-nonspecific isozyme (Homo sapiens, UniProt P05186); experiment: TNAP enzyme inhibition by screening hits, dose response, selectivity assay for mouse IAP inhibitor project, biochemical, human TNAP, uHTS hits (AID 488906); type: functional
T1 sequence (P05186 whole entry): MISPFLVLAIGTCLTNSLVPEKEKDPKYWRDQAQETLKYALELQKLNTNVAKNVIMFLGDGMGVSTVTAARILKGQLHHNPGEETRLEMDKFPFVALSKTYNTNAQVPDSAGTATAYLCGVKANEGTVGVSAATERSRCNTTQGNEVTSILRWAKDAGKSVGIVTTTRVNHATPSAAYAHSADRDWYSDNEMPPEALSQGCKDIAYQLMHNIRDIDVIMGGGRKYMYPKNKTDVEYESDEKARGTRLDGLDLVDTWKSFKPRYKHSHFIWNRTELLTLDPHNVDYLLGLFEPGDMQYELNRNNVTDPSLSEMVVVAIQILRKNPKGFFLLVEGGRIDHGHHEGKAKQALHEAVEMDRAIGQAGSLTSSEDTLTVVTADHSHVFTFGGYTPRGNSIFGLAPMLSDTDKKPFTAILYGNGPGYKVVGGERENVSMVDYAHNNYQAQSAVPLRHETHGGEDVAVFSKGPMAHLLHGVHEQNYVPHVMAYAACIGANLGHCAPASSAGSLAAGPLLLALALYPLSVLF

[3] = biological target: Intestinal-type alkaline phosphatase (Mus musculus, UniProt P24822); experiment: PubChem AID 488785; type: functional
[4] = tested on: INS1; experiment: INS-1E survival protection against cytokine death – cell-based, luminescence, retest, dose response (AID 449756); type: functional; details: Rattus norvegicus;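 also: cell death triggered by IL-1 beta plus TNF-alpha plus IFN-gamma mixture; protective hits raise ATP signal compared with cytokine alone wells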
[5] = biological target: DNA repair and recombination protein RAD54-like (Homo sapiens, UniProt Q92698); experiment: RAD54 Holliday junction migration blockers – biochemical, fluorescence, cherry-picked samples, dose series, confirmation (AID 651657); type: functional
[6] = biological target: Prothrombin (Bos taurus, UniProt P00735); experiment: thrombin protease inhibitors – biochemical, fluorescence polarization, uHTS hits, dose response (AID 602369); type: functional
[7] = tested on: BJ; experiment: BJ-TERT fibroblast viability loss – cell-based, RAS-independent, luminescence, dose response (AID 1933); type: functional; details: Homo sapiens
[8] = cells; type: functional
[9] = THP-1 cell cytotoxicity, dose response, cytotoxicity control for non-replicating M. tuberculosis project (AID 489025); type: functional
[10] = tested on: BJ; experiment: BJ-TERT-LT-ST fibroblast viability loss – cell-based, RAS-independent, luminescence, dose response (AID 1935); type: functional; details: Homo sapiens;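 also: BJ fibroblasts immortalized with TERT plus LT and ST oncogenes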
[11] = luciferase reporter signal suppression in cells – H4 neuroglioma cells, luminescence, dose response (AID 1990); type: functional, cell-based
[12] = biological target: T2, Delta-type opioid receptor (Homo sapiens, UniProt P41143); experiment: HTS Image-Based Screen for Antagonists of the DOR Receptor. [Related pubchem assays (depositor defined):AID1777, AID1785, AID1786, AID2133]; type: functional
[13] = biological target: 72 kDa type IV collagenase (Homo sapiens, UniProt P08253); experiment: Dose Response validation of uHTS RPN11 inhibitor hits using a MMP-2 Fluorescence assay.; type: functional
[14] = alpha-synuclein stem-loop luciferase translation blockers – H4 neuroglioma cells, luminescence, confirmation (AID 1988); type: functional, cell-based
[15] = biological target: 26S proteasome non-ATPase regulatory subunit 14 (Homo sapiens, UniProt O00487); experiment: inhibition of proteasome subunit RPN11 – biochemical, fluorescence polarization, uHTS hits, confirmation (AID 602368); type: functional
[16] = Vero E6 cell cytotoxicity, dose response, cytotoxicity control for non-replicating M. tuberculosis project, secondary assay (AID 492998); type: functional, VeroE6; details: Vero C1008
[17] = tested on: BJ; experiment: cells; type: functional, cell-based; details: Homo sapiens
[18] = biological target: T3, Kappa-type opioid receptor (Homo sapiens, UniProt P41145); type: functional
[19] = Luminescence Cell-Based Dose Response HTS to Identify Inhibitors of 5'UTR Stem-Loop Driven Prion Protein mRNA Translation in H4 Neuroglioblastoma Cells. [Related pubchem assays: 1827 (Project Summary), 1813 (Primary HTS)]; type: functional
[20] = biological target: Mu-type opioid receptor (Homo sapiens, UniProt P35372); experiment: HTS Image-Based Screen for Agonists of the MOR Receptor. [Related pubchem assays (depositor defined):AID1777, AID1785, AID1786, AID2133]; type: functional;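 also: imaging of beta-arrestin GFP recruitment into spots after receptor activation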
[21] = DRD fibroblast viability loss – cell-based, non-viral oncogenic, luminescence, dose response (AID 1934); type: functional; details: Homo sapiens
[22] = HepG2 cell cytotoxicity, dose response, cytotoxicity control for non-replicating M. tuberculosis project (AID 489018); type: functional; details: Mycobacterium tuberculosis
[23] = cytotoxicity toward MDA-MB-231 breast cancer cells – cell-based, CellTiter-Glo luminescence, cherry-pick, cytotoxicity control for RAD54 inhibitor project, dose response (AID 651692); type: functional
[24] = biological target: T3, Kappa-type opioid receptor; type: functional; remark: listed apart in the source
[25] = biological target: T2, Delta-type opioid receptor; experiment: HTS Image-Based Screen for Agonists of the DOR Receptor. [Related pubchem assays (depositor defined):AID1777, AID1786, AID2133]; type: functional
[26] = biological target: T4, Tyrosine-protein phosphatase non-receptor type 22 (Homo sapiens, UniProt Q9Y2R2); type: functional
T4 sequence (Q9Y2R2 whole entry): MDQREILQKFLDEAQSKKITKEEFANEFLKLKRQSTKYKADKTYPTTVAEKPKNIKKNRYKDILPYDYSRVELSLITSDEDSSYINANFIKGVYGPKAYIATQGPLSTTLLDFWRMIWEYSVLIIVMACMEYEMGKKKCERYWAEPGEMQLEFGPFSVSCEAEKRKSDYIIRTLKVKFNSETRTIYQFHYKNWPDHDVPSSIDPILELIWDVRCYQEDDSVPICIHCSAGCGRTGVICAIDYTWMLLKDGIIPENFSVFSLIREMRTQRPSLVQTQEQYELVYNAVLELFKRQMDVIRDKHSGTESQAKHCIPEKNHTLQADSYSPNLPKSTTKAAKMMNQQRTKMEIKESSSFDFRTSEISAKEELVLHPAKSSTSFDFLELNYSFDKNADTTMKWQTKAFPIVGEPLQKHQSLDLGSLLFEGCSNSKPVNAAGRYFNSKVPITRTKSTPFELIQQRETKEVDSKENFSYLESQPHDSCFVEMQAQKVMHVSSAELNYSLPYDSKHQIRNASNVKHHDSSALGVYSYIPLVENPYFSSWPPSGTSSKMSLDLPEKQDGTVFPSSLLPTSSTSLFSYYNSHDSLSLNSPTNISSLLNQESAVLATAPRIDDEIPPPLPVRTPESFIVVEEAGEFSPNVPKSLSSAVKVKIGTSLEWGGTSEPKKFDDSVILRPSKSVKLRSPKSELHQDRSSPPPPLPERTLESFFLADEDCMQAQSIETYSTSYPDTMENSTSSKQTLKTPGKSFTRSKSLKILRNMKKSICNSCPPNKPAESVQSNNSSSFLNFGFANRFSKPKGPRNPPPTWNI

[27] = biological target: T5, Tyrosine-protein phosphatase non-receptor type 7 (Homo sapiens, UniProt P35236); type: functional
T5 sequence (P35236 whole entry): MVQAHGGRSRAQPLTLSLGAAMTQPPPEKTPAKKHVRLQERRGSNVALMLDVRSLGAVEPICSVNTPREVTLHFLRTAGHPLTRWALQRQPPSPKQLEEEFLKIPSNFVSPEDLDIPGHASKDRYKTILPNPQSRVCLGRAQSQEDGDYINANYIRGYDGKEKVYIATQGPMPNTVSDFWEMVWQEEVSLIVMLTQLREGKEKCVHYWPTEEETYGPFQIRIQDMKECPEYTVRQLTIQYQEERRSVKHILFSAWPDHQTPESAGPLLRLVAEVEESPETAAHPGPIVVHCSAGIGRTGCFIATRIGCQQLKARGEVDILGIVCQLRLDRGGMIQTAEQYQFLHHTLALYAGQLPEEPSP

[28] = biological target: T4, Tyrosine-protein phosphatase non-receptor type 22; type: functional; remark: listed apart in the source
[29] = biological target: Lysine-specific demethylase 4C (Homo sapiens, UniProt Q9H3R0); experiment: inhibition of JMJD2C H3K9me3 demethylation – biochemical, DELFIA europium, cherry-picked samples, dose response (AID 488835); type: functional
[30] = biological target: T6, Mannose-6-phosphate isomerase (Homo sapiens, UniProt P34949); experiment: phosphomannose isomerase inhibition – biochemical, fluorescence intensity, confirmation (AID 1535)
T6 sequence (P34949 whole entry): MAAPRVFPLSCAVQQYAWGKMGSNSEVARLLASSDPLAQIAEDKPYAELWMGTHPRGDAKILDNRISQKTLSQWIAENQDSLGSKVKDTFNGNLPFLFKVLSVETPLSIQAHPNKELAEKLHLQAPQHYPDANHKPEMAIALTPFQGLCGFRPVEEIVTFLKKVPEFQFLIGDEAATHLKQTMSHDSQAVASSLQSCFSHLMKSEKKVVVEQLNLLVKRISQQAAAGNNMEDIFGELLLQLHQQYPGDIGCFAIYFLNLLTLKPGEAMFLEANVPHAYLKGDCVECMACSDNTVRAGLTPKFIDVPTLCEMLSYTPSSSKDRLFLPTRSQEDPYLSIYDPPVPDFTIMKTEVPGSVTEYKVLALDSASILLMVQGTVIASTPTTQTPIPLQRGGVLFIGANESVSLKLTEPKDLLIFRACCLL

[31] = biological target: Phosphomannomutase 2 (Homo sapiens, UniProt O15305); experiment: Counter screen SAR assay for PMM2 inhibitors via a fluorescence intensity assay. [Related pubchem assays (depositor defined):AID1545, AID1574]
[32] = tested on: BJ; experiment: growth inhibition of engineered Ras-driven BJ cells – cell-based, alamar blue fluorescence, cherrypicked samples, dose response (AID 2631); type: functional; details: Homo sapiens;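 also: confirmatory dose-response assay in RAS-dependent BJ fibroblasts engineered with TERT, LT and ST, with cytotoxicity read by fluorescence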
[33] = tested on: HEK293; experiment: cells; details: Homo sapiens
[34] = tested on: HEK293; experiment: cells; details: Homo sapiens; remark: listed apart in the source
[35] = restored growth of temperature-sensitive Burl-1 yeast – whole organism, S. cerevisiae, Burl-1 ts mutant, luminescence, counter-screen for SUMOylation pathway inhibitor project, dose response (AID 463199); type: functional
[36] = biological target: Cytochrome P450 3A4 (Homo sapiens, UniProt P08684);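 also: CYP3A4 tested as one member of a cytochrome P450 panel screen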
[37] = biological target: Cytochrome P450 2C19 (Homo sapiens, UniProt P33261); experiment: Cytochrome panel assay with activity outcomes. Panel member name: p450-cyp2c19 Compounds with AC50 equal or less than 10 uM are considered active; type: functional
[38] = biological target: Cytochrome P450 2C9 (Homo sapiens, UniProt P11712)
[39] = biological target: Cytochrome P450 2D6 (Homo sapiens, UniProt P10635);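 also: CYP2D6 member of a cytochrome P450 panel assay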
[40] = biological target: T7, Cytochrome P450 1A2 (Homo sapiens, UniProt P05177);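 also: PubChem cytochrome P450 panel assay, CYP1A2 panel member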
T7 sequence (P05177 whole entry): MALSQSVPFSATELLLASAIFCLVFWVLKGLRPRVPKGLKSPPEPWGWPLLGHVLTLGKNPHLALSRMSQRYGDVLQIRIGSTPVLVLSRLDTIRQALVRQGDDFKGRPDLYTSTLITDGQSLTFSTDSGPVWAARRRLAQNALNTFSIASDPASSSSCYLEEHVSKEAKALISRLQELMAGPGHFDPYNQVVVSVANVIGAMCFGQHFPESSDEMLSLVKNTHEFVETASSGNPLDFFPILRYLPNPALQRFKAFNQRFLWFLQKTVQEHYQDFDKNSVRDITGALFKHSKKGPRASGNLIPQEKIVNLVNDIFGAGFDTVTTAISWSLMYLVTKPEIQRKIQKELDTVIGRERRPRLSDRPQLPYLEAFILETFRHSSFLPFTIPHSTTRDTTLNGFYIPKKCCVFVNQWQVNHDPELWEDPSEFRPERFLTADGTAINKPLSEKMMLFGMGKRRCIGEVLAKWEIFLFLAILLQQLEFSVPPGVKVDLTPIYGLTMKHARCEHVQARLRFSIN

T2 sequence (P41143 whole entry): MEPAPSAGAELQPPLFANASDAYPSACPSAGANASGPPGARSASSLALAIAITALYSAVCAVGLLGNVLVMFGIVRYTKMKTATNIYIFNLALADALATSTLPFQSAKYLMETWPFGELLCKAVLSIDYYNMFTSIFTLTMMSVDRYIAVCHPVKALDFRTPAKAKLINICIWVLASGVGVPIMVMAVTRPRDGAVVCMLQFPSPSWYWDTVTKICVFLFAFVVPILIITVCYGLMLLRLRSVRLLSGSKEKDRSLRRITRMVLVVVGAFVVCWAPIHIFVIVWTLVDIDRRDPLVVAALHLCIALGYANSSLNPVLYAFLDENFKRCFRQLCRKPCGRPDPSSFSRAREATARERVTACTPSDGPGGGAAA
T3 sequence (P41145 whole entry): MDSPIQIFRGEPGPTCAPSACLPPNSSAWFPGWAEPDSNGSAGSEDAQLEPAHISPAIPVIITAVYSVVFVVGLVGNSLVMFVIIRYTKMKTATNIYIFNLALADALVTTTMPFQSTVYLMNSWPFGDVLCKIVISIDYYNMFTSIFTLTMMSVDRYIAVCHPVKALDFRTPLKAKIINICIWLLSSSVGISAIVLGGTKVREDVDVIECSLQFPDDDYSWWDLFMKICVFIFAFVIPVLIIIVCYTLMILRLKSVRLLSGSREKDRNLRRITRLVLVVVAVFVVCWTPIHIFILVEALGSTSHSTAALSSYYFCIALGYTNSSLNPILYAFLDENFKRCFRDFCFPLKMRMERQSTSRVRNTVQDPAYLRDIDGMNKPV
Chain of Mu-type opioid receptor (P35372 whole entry): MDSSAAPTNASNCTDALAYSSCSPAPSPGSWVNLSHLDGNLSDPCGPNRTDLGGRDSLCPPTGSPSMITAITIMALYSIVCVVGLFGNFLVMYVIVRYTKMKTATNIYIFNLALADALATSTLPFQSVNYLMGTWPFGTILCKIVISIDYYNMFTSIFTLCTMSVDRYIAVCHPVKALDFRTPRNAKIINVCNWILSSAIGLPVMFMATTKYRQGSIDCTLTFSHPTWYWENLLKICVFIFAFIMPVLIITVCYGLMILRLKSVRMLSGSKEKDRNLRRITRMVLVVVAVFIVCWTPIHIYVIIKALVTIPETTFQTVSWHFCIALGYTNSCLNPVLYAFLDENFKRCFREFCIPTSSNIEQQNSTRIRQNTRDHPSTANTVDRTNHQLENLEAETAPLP
Chain of 72 kDa type IV collagenase (P08253 whole entry): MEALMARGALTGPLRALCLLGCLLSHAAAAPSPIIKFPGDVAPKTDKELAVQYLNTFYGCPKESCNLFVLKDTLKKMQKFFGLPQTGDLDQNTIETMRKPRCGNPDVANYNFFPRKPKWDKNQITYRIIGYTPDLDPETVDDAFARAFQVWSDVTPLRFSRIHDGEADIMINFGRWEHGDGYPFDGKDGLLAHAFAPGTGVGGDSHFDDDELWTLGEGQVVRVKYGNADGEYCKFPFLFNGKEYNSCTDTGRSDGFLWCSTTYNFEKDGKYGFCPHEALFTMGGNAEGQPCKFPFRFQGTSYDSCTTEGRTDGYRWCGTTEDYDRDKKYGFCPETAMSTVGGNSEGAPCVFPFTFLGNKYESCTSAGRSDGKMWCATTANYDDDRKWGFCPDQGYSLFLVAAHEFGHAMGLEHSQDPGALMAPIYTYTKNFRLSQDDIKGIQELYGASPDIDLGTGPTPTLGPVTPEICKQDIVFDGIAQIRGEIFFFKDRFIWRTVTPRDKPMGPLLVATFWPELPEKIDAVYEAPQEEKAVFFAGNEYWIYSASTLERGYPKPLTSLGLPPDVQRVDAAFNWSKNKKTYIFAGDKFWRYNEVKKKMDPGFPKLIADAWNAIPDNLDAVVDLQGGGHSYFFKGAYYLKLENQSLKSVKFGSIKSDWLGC
Chain of Cytochrome P450 3A4 (P08684 whole entry): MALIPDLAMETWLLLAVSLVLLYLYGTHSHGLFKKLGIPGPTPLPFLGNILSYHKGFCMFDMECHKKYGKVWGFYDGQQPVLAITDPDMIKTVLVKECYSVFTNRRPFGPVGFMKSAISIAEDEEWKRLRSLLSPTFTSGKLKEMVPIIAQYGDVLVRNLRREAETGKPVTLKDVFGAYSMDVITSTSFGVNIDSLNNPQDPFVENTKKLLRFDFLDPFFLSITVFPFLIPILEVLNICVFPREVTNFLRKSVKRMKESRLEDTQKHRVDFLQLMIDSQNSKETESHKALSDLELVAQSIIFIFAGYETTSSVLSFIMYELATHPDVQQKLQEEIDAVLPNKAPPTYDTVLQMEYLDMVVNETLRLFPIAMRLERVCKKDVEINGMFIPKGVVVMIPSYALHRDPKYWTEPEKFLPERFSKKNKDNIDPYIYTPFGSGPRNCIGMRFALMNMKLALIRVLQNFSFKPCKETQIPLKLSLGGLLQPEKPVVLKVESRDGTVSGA
Chain of Intestinal-type alkaline phosphatase (Mus musculus, UniProt P24822) (P24822 whole entry): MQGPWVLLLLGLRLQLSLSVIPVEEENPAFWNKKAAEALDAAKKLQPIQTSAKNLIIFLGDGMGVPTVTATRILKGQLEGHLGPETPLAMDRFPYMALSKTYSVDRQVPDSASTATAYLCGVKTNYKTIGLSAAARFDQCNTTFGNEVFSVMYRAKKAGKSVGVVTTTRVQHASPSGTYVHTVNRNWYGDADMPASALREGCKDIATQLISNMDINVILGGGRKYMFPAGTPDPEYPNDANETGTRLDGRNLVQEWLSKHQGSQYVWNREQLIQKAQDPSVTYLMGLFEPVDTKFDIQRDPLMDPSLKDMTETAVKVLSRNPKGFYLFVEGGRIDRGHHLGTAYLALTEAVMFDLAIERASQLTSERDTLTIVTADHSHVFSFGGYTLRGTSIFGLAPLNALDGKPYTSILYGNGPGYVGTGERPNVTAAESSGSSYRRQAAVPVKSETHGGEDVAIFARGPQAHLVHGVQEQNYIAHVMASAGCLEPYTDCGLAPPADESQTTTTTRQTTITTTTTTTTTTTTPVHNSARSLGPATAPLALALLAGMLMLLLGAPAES
Chain of Lysine-specific demethylase 4C (Q9H3R0 whole entry): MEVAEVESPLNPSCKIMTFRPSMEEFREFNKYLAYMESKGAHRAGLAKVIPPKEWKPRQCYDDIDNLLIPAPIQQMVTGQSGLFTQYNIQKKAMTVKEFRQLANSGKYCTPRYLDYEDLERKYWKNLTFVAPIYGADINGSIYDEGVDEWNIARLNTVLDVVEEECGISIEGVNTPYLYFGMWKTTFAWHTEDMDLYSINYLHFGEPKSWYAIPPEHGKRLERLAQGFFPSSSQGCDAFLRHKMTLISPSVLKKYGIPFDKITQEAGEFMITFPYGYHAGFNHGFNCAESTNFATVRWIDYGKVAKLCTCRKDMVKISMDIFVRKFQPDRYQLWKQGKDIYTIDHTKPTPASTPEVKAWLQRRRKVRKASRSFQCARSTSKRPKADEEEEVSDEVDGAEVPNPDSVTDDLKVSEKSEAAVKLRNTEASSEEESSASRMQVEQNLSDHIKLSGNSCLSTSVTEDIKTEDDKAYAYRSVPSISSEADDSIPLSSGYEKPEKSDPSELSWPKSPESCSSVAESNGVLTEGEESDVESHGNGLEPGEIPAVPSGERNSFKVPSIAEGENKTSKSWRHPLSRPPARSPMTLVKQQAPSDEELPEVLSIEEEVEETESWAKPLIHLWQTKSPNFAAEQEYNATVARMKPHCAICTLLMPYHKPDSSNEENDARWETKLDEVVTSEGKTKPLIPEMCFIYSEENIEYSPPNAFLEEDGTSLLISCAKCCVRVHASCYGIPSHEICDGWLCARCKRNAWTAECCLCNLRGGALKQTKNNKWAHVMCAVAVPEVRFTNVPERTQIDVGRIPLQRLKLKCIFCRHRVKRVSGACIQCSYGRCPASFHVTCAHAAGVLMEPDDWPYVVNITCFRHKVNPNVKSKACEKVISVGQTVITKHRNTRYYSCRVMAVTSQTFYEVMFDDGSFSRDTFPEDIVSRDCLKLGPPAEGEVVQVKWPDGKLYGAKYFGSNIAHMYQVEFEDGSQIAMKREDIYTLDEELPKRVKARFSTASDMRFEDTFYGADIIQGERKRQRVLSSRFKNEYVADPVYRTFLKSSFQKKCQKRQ
Chain of Cytochrome P450 2C19 (P33261 whole entry): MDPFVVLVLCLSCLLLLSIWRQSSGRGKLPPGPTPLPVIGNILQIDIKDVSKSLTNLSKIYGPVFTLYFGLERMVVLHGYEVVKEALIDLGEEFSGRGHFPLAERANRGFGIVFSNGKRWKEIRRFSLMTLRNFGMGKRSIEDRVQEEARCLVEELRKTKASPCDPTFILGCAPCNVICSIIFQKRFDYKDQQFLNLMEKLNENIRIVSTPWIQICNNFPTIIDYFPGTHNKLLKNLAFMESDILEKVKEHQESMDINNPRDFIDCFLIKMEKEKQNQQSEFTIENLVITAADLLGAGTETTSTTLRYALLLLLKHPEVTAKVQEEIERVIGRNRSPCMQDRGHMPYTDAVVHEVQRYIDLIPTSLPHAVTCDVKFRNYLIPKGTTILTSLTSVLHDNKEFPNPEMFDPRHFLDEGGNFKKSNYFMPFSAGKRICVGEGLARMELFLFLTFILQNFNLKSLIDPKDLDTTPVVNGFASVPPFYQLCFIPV
Chain of Cytochrome P450 2C9 (P11712 whole entry): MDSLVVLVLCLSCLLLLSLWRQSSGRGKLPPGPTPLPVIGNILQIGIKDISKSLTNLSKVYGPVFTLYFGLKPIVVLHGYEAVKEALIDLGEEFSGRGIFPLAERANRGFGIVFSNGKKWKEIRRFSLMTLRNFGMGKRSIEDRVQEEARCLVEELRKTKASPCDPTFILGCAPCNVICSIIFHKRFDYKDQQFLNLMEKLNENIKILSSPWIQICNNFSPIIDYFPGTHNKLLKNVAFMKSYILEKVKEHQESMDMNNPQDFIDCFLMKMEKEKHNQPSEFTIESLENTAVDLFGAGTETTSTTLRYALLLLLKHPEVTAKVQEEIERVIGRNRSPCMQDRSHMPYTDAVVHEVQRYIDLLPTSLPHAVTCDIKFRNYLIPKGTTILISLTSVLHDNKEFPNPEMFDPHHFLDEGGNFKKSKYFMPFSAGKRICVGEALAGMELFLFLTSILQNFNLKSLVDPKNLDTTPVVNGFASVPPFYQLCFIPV

SMILES: O=C(CCN1C(=O)/C(=C/c2ccco2)SC1=S)Nc1ccc(O)cc1C(=O)O
- IC50 [1]: > 100 µM (inactive)
- IC50 [2]: 19.6 µM (active)
- IC50 [3]: 1.51 µM (active)

SMILES: COc1cc2ccccc2cc1C(=O)Nc1sc2c(c1C(N)=O)CCN(C(C)C)C2
- AC50 [4]: 7.78 µM (active)
- AC50 [5]: 9.33 µM (active)
- IC50 [6]: 15.1 µM (active)
- EC50 [7]: 6.33 µM (active)
- IC50 [8]: 11.9 µM (active)
- CC50 [9]: 11.6 µM (active)
- EC50 [10]: 6.85 µM (inconclusive)
- EC50 [11]: > 120 µM (not active)
- IC50 [12]: > 32 µM (inactive)
- IC50 [13]: > 100 µM (inactive)
- EC50 [14]: > 120 µM (not active)
- IC50 [15]: 18.1 µM (active)
- CC50 [16]: 4.6 µM (active)
- EC50 [17]: 13.6 µM (active)
- EC50 [18]: 2 µM
- EC50 [19]: > 120 µM (not active)
- EC50 [20]: > 32 µM (inactive)
- EC50 [21]: 7.16 µM (active)
- CC50 [22]: 10.8 µM (active)
- AC50 [23]: 16 µM (active)
- EC50 [24]: 14.8 µM
- EC50 [25]: > 32 µM (inactive)

SMILES: Cc1cccnc1-n1c(C)nc2ccccc2c1=O
- IC50 [26]: > 79.4 µM (inactive)
- IC50 [27]: > 79.4 µM (inactive)
- IC50 [28]: > 79.4 µM (inactive)

SMILES: CCOC(=O)C1=CC(=C2C(=O)N(CC)C(=S)N(CC)C2=O)c2ccccc2O1
- AC50 [29]: 12.2 µM (active)

SMILES: Cc1ccc(/N=c2\ssnc2Cl)c([N+](=O)[O-])c1
- IC50 [30]: 4.44 µM (active)
- IC50 [31]: 96.2 µM (active)

SMILES: CC(C)c1cc(C(=O)N/N=C/C(Br)=C/c2ccccc2)[nH]n1
- EC50 [7]: 29.6 µM (active)
- EC50 [32]: 22.2 µM (active)
- EC50 [10]: > 150 µM (inconclusive)
- EC50 [33]: > 59.7 µM (inactive)
- EC50 [17]: 4.12 µM (active)
- EC50 [34]: > 59.7 µM (inactive)
- EC50 [21]: 5.12 µM (active)
- AC50 [35]: 137 µM (active)

SMILES: O=C(O)c1cc2ccccc2c(Cc2c(O)c(C(=O)O)cc3ccccc23)c1O [PAMOIC ACID]
- AC50 [36]: inactive
- AC50 [37]: inactive
- AC50 [38]: inactive
- AC50 [39]: inactive
- AC50 [40]: inactive

Reference: ChEMBL document CHEMBL1201862, “PubChem BioAssay data set” (2004)
